# Assay results as given in US12116344B2, “Crystalline forms of a pharmaceutical compound” (Azafaros B.V., priority 2020, dated 2024).
# What was measured:
# Calbindin-D28k = assay: Brain immunofluorescence of Calbindin-D28k (Purkinje cell marker); format: in vivo, mice
# Protocol: Mouse right hemi-brains were fixed by immersion in freshly prepared 4% paraformaldehyde in PB (pH 7.4) for two hours at room temperature. Afterwards, hemispheres were transferred to 15% sucrose/PBS and stored at 4° C. until sunk to ensure cryoprotection. Tissue blocks were then trimmed as needed, transferred to cryomolds, embedded in OCT medium, frozen in dry ice-cooled isopentane and stored in an ultra-deep freezer (set at −80° C. target temperature).
# Five consecutive cryosections were sagittally cut at 10 μm thickness on a Leica cryotome. The next 25 sections per level were discarded. This collection scheme was repeated for 12 levels and may have been modified to collect from the correct levels, e.g., if brains were smaller due to young age or genotype. In total 12×5=60 sections were collected. Sectioning levels were chosen according to the brain atlas of Paxinos and Franklin (“The Mouse Brain in Stereotaxic Coordinates”, 2nd edition, 2001). Collection of sections started at a level ˜0.2 mm lateral from midline and extend through the hemisphere to ensure systematic random sampling through the target regions (FIGS. 10 and 15). Sections were stored at −20° C. Almost the entire brain was sectioned, so the residual tissue block was disposed when all sections were collected.
# For each incubation, a uniform systematic random set of five sections per mouse was selected (one section each from levels 2, 4, 6, 8, 10); for information on systematic random sampling follow this link: http://www.stereoloqy.info/sampling/ […]
# Whole slide scans of the stained sections were recorded on a Zeiss automatic microscope AxioScan Z1 with high aperture lenses, equipped with a Zeiss Axiocam 506 mono and a Hitachi 3CCD HV-F202SCL camera and Zeiss ZEN 2.3 software.
# Image analysis was done with Image Pro 10 (Media Cybernetics). […] Afterwards, immunofluorescence was quantitatively evaluated within the identified areas.
# For quantification we used background correction if necessary and detect immunoreactive objects by adequate thresholding and morphological filtering (size, shape). […]
# [1] = target: T1, non-lysosomal glucosylcerebrosidase (GbA2) (Homo sapiens, UniProt Q9HCG7); conditions: stated in words only, no test described; cited from earlier work
# T1 sequence (Q9HCG7 1-927): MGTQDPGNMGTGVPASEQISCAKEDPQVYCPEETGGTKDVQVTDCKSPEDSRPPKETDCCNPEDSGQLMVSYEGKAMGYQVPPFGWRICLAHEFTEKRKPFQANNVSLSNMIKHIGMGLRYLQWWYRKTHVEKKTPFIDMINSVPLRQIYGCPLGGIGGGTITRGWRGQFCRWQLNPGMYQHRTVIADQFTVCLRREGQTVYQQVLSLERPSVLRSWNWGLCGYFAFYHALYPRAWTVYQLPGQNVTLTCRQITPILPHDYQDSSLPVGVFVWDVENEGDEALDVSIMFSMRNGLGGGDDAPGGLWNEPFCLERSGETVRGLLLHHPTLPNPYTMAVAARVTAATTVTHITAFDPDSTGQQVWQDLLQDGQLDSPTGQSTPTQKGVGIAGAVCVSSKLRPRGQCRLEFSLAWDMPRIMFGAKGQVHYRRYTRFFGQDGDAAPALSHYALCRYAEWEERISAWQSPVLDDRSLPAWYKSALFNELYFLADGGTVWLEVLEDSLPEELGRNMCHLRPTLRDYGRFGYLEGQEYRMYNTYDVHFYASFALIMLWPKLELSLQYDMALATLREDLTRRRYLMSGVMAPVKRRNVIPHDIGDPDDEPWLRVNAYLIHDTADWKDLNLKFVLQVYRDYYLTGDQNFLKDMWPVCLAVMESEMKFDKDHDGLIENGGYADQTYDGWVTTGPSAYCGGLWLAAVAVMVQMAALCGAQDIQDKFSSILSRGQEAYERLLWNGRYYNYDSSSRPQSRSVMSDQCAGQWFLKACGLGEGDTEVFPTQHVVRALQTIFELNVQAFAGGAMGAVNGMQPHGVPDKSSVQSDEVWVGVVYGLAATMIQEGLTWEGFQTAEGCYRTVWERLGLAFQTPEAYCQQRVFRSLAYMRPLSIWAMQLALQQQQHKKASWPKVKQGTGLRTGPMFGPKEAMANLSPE
smiles,measurement,setting,value
OC[C@H]1[C@@H](O)[C@H](O)[C@@H](O)CN1CCCCCOCc1ccc(-c2ccccc2)c(F)c1 [AZ-3102],Calbindin-D28k immunofluorescence in the cerebellum,"Calbindin-D28k; NPC (−/−) mice, treated versus vehicle, all readouts",significantly increased
same,Calbindin-D28k immunofluorescence in the hippocampus,"Calbindin-D28k; NPC mice, group comparison",no significant group differences
same,Cerebellar Purkinje cell loss,"Calbindin-D28k; treated compared to vehicle treated NPC (−/−) mice, calbindin-D28k marker",significantly limited
same,Potency as inhibitor of GbA2,[1],highly potent (nM)
